The structures appear in SMILES notation.

With `c1cncc(OCCCn2cc(-c3cc4nccnc4[nH]3)c3ccccc32)c1` [Example 6, 6-{1-[3-(Pyridin-3-yloxy)-propyl]-1H-indol-3-yl}-5H-pyrrolo[2,3-b]pyrazine], the melting point (in general, the temperature, or range, at which the solid turns liquid) fell in the range of 208 to 209 °C.
Next, `COc1ccc2[nH]cc(-c3cc4nccnc4[nH]3)c2c1` [Example 11, 6-(5-Methoxy-1H-indol-3-yl)-5H-pyrrolo[2,3-b]pyrazine]: 268 to 271 °C; `COc1ccc2c(c1)c(-c1cc3nccnc3[nH]1)cn2CC(=O)N1CCOCC1` [Example 12, 2-[5-Methoxy-3-(5H-pyrrolo[2,3-b]pyrazin-6-yl)-indol-1-yl]-1-morpholin-4-yl-ethanone]: 263 to 267 °C; `Cn1cc(-c2cc3cccnc3[nH]2)c2cc(N)ccc21` [Example 18, 1-Methyl-3-(1H-pyrrolo[2,3-b]pyridin-2-yl)-1H-indol-5-ylamine]: 247 to 248 °C.
`CC(C)(C)c1ccc(-c2[nH]c3nccnc3c2CCCO)cc1` [Example 26, 3-[6-(4-tert-Butyl-phenyl)-5H-pyrrolo[2,3-b]pyrazin-7-yl]-propan-1-ol] came in with a melting point of 187 to 189 °C.
Regarding `CCOC(=O)COc1cc(-c2cc3nccnc3[nH]2)ccc1OC` [Example 27, [2-Methoxy-5-(5H-pyrrolo[2,3-b]pyrazin-6-yl)-phenoxy]acetic acid ethyl ester], the melting point lay in the range of 183 to 184 °C.

Source of the values: patent US7227020B2, “Azaindoles” (Aventis Pharma Limited, priority 1999, dated 2007).
